Results taken from US9624485B2, “Genetic incorporation of unnatural amino acids into proteins in mammalian cells” (The Scripps Research Institute, priority 2006, dated 2017).
One block for each molecule: values may come before it.

Key:
[1] = test system: amber codon in GFP37TAG in T-REx CHO cells; assay: Amber suppression of GFP37TAG by BstRNACUA^Tyr/EcTyrRS variants, Western blot of full-length GFP; type: cell-based, Chinese hamster; details: 8 mM in media, 24 hours
Experimental: (§1) The ability of the six EcTyrRS variants together with BstRNACUA^Tyr to suppress the amber codon in GFP37TAG was then tested in the presence and absence of unnatural amino acids in the growth media. Transient transfection of cells with plasmids was carried out as described for wild type EcTyrRS. Six hours after transfection, the media were replaced by the fresh media containing 1 μg/ml tetracycline and supplemented with the corresponding unnatural amino acid (pMpa, 10 mM; pApa, 10 mM; pBpa, 1 mM; plpa, 8 mM; pAzpa, 5 mM; or pPpa, 1 mM). Cells were then grown 24 hours for T-REx™ CHO cell lines and 48 hours for T-REx™ 293 cell lines before harvesting. In both T-REx™ CHO and 293 cells, the expression of full length GFP37TAG was dependent upon the presence of unnatural amino acids in the growth media as indicated in FIG. 2 and FIG. 3. […]
(§2) For Western blot analysis, harvested cells were lysed in RIPA buffer (Upstate Biotechnology/Millipore) with a 1:100 dilution of protease inhibitor cocktail (Sigma). […] Chemiluminescence was then detected with PIERCE ECL Western Blotting substrate. For T-REx™ 293 cells, the membranes were probed with anti-His-HRP (Invitrogen™; 1:5000 dilution) and then detected with PIERCE ECL Western Blotting substrate.

[2] = test system: amber codon in GFP37TAG in T-REx 293 cells; assay: as above; type: cell-based, human; details: 8 mM in media, 48 hours
Experimental: as §1, §2

[3] = test system: T-REx 293 cells; assay: Cellular toxicity of the unnatural amino acid in growth media; type: cell-based, human; details: 8 mM in media
[4] = test system: position 37 of GFP; assay: Fidelity of unnatural amino acid incorporation by nano-RP LC/MS/MS and ESI TOF-MS; details: for wild type peptide signals in tandem MS of mutant GFP: nano-RP LC/MS/MS of tryptic fragments, T-REx CHO cells
Description: To further characterize GFP-pMpa, the mutant protein was expressed in T-REx™ CHO cells transiently transfected with both pSWAN-pMpaRS and pSWAN-GFP37TAG. The protein was purified using an anti-myc antibody agarose column and then separated by SDS-PAGE. The GFP-pMpa band from the SDS-PAGE gel was digested with trypsin and analyzed by nanoscale reversed-phase liquid chromatography/mass spectrometry/mass spectrometry (nano-RP LC/MS/MS). In parallel, wild type GFP was purified from cells transfected with pcDNA4-GFP and subjected to the same analysis.
Proteolysis of affinity purified proteins (performed for wild-type and pBpa samples) was carried out by overnight incubation of proteins at 37° C. with sequencing-grade modified trypsin (Promega) using a substrate/enzyme ratio of 10:1 (wt/wt) based on the estimated protein concentration in 100 mM triethylammonium bicarbonate buffer (pH 8.5). In-gel digestions (performed for pMpa, pAzpa, pApa, and pPpa samples) were performed according to a modified EMBL procedure (see the website for EMBL, Heidelberg, Germany, Bioanalytical Research Group). Briefly, gel slices were excised to approximately 1 mm×1 mm cubes, washed for 5 minutes with water, 15 minutes with acetonitrile, and dried in a vacuum centrifuge before being rehydrated at 0° C. for 30 minutes with 12.5 ng/μl of sequencing-grade modified trypsin in 50 mM triethylammonium bicarbonate buffer (pH 8.5). Excess buffer was removed and 20 μl of 50 mM triethylammonium bicarbonate buffer (pH 8.5) was added to the gel slices before incubating at 37° C. overnight. Peptides were extracted from the gel slices as described in the protocol.
Nano-RP LC/MS/MS was performed with an HPLC pump, autosampler (Agilent Technologies, Palo Alto, Calif.), and an LTQ Orbitrap hybrid mass spectrometer (ThermoElectron, San Jose, Calif.). Tryptic digests were loaded with a pressure bomb onto a 75 μm i.d. precolumn packed with 4 cm of 5-μm Monitor C18 particles (Column Engineering, Ontario, Calif.) at a flow rate of approximately 2 μl/min. The precolumn was then connected to the HPLC pump and after several minutes of washing with solvent A the analytical column with integrated emitter tip (360 μm O.D.×75 μm i.d; 10 cm of 5 μM C18, ˜5-μm tip) was connected in series. The chromatographic profile was from 100% solvent A (0.1% aqueous acetic acid) to 50% solvent B (0.1% acetic acid in acetonitrile) in 40 min; the flow rate through the analytical column was ca. 100 nl/min.
For data-dependent experiments, the mass spectrometer was programmed to first record a high-resolution Orbitrap scan then a full-scan ion trap spectrum (m/z 500-2,000). This was followed by 10 data-dependent MS/MS scans (relative collision energy=35%; 3-Da isolation window) triggered of the ion-trap scan and finally two targeted MS/MS scans. The first targeted MS/MS scan was set to isolate and fragment the doubly charged precursor ion of the predicted unnatural amino acid modified peptide
at m/z 752.3. The raw data were searched against the MSDB database using MASCOT (Matrixscience, London, UK) for protein identification and to find the scans containing the target peptides with the unnatural amino acids as variable modification. To estimate fidelity at Y*37 of GFP-pMpa, single ion chromatograms (doubly charged precursor ions at m/z 752.3 for the wt and 759.3 for pMpa) and selected ion chromatograms (y9, y11, and y12) were integrated using the Xcalibur software package (ThermoElectron, San Jose, Calif.).
Intact protein mass spectra were acquired on an automated LC/MS system (Waters, Milford, Mass.) consisting of a capillary LC with auto-sampler and a QTOF2 mass spectrometer. GFP-pMpa (0.1 mg/ml) was loaded onto a reversed-phase protein Captrap (Michrom Bioresources, Auburn, Calif.) for desalting with 0.1% acetic acid in water and eluted with 80% acetonitrile/0.1% acetic acid at 5 μl/min into the ESI source of the mass spectrometer. […]

Compound: N[C@@H](Cc1ccc(I)cc1)C(=O)O [plpa, p-iodo-L-phenylalanine]
expression level of GFP containing the unnatural amino acid [1]: low expression level
expression of GFP containing the unnatural amino acid [2]: no GFP expression
time until cells die (cellular toxicity) [3]: 6 h

stability of the azido amino acid in mutant GFP seen by tandem MS ([4]; mutant GFP containing pAzpa): Most of pAzpa decays to pAmpa
Compound: [N-]=[N+]=Nc1ccc(C[C@H](N)C(=O)O)cc1 [pAzpa, p-azido-L-phenylalanine]
wild type peptide signals in tandem MS of mutant GFP [4]: No wild type signals could be detected

Compound: C#CCOc1ccc(C[C@H](N)C(=O)O)cc1 [pPpa, p-propargyloxyphenylalanine]
wild type peptide signals in tandem MS of mutant GFP [4]: No wild type signals could be detected

Compound: N[C@@H](Cc1ccc(C(=O)c2ccccc2)cc1)C(=O)O [pBpa, p-benzoyl-L-phenylalanine]
wild type peptide signals in tandem MS of mutant GFP [4]: trace amount of the wild type peptide

Compound: COc1ccc(C[C@H](N)C(=O)O)cc1 [pMpa, p-methoxy-L-phenylalanine]
wild type GFP signals in intact protein ESI TOF-MS ([4]; affinity purified GFP-pMpa): No wild type GFP signals

Compound: CC(=O)c1ccc(C[C@H](N)C(=O)O)cc1 [pApa, p-acetyl-L-phenylalanine]
wild type peptide signals in tandem MS of mutant GFP [4]: No wild type signals could be detected
